# Where two headings read alike, the source gives them in different places.
# Experiments:
# [1] = HEM; for Transference number: 0.5 mA DC
# Procedure: (§1) FIG. 1 schematically depicts the setup employed to carry out human epidermal membrane (HEM) iontophoretic experiments described below. Scleral experiments were conducted using a simple side-by-side diffusion apparatus known to one of ordinary skill in the art. Conductive silver paint was purchased from Ladd Research Technologies (Williston, Vt.) and silver foil from EM-Science (Gibbstown, N.J.). Silver chloride powder, phosphate buffered saline (PBS, pH 7.4) tablets were purchased from Sigma (St. Louis, Mo.). ^14C-sodium salicylate was purchased from ARC (St. Louis, Mo.) and non-radiolabeled sodium salicylate from Sigma. Ultimate Gold® scintillation cocktail was purchased from Packard (Meriden, Conn.) and liquid scintillation counting was performed by a Packard TriCarb Model 1900 TR liquid scintillation analyzer. A custom built AC waveform generator power supply (EM-Tech Electronics, Lindon Utah) was used as the permeabilzation power supply for skin studies. The DC driving force for the skin studies was a 9 V battery (Duracell) combined with a fixed resistor. For scleral studies, there was no permeabilization source needed and all iontophoresis was conducted using a Phoresor PM-800 (Iomed, Inc., Salt Lake City, Utah). Human epidermal membrane was obtained from licensed sources and experiments were conducted under local IRB approval. Scleral tissue was obtained from freshly euthanized rabbit cadavers under local IACUC approval. All water was >18 MΩ prepared by the Milli-Q process. Ionac® MA-3475 (Sybron Chemical, Inc., Birmingham, N.J.) was pre-loaded with sodium salicylate by vigorously stirring the membranes in a 0.15 M sodium salicylate solution spiked with the radiolabel. Loading was considered complete when the DPM counts in the loading solution varied by less than 10% over a 12 hour period. The MA-3475 membranes were assembled in a group of five membranes and placed in the diffusion cell setup.
# Permeabilized skin transport experiments were conducted using a side-by-side type diffusion cell with an open diffusional area of 0.85 Cm^2. The cells were separated by a piece of dermatomed, heat-separated human epidermal membrane with the stratum corneum facing the donor compartment.
# The DC iontophoresis driving electrodes were prepared by dipping a silver foil strip into a 1:1 (w/w) mixture of conductive silver paint and finely ground silver chloride. After dipping, the electrodes were hung and allowed to cure at room temperature overnight. The AC permeabilizing electrodes were made by mechanically drilling holes into a piece of silver foil and electro-coating the perforated silver foil with AgCl by submersion in a saturated KCl solution and passing a 1 mA current for 10 minutes.
# (§2) The receiver compartment was filled with 0.15 M PBS. In each experiment, the donor compartment contained 0.15 M sodium salicylate in water spiked with 25 nCi/ml ^14C-sodium salicylate.
# A 1000 Hz AC potential was applied to decrease and maintain the skin resistance to 2 and 0.5 kΩ and a 9 V battery was connected to a fixed resistor in series to yield a direct current of 0.5 mA. Every 30 minutes, the entire volume of the receiver solution was removed, mixed with scintillation cocktail, and analyzed by liquid scintillation counting. All experiments were conducted at least in duplicate.
# The amount of ^14C-salicylate transported across the membrane was plotted as a function of time. Permeabilities were determined from the following equations: [formula]
# where J is the flux, Q is the amount of solute transported across the membrane, A is the area of the exposed membrane, t is time, P is the permeability, and CD is the concentration of the solute in the donor solution.
# Permeabilities were plotted as a function of time and the slope of the best-fit line to the steady state portion of the curve was determined using regression analysis.
# [2] = rabbit sclera
# Procedure: as §1
# Scleral transport experiments were conducted using a side-by-side type diffusion cell with an open diffusional area of 0.2 cm^2. The cells were separated by a piece of excised scleral tissue from adult rabbits. The diffusion cells were assembled with the conjunctival side facing the donor compartment.
# The DC iontophoresis driving electrodes were prepared by dipping a silver foil strip into a 1:1 (w/w) mixture of conductive silver paint and finely ground silver chloride. After dipping, the electrodes were hung and allowed to cure at room temperature overnight.
# as §2
# Direct current DC was applied at currents of 0.5, 1, and 2 mA with a Phoresor. Every 30 minutes, the entire volume of the receiver solution was removed, mixed with scintillation cocktail, and analyzed by liquid scintillation counting. All experiments were conducted in triplicate.
# The amount of ^14C-salicylate transported across the membrane was plotted as a function of time. Permeabilities were determined from the equations (8) and (9) and plotted and analyzed as in Example 1.
smiles,measurement,setting,value
"O=C([O-])c1ccccc1O.[Na+] [Salicylate, sodium salicylate]",Transference number,"[1]; AC + DC, 0.5 kΩ, PSM +",0.32 ± 0.03
same,Transference number,"[1]; AC + DC, 0.5 kΩ, PSM none",0.12 ± 0.01
same,Transference number,"[1]; AC + DC, 2 kΩ, PSM +",0.16 ± 0.03
same,Transference number,"[1]; AC + DC, 2 kΩ, PSM none",0.12 ± 0.01
same,Transference number,"[1]; DC only, PSM +",0.18 ± 0.03
same,Transference number,"[1]; DC only, PSM none",0.13 ± 0.01
same,increase in current carried by the drug due to permselective membrane,"[1]; AC permeabilization, target resistance 2 kΩ",about 30%
same,current carried by the drug,"[1]; AC permeabilization, target resistance 2 kΩ, no permselective membrane",12%
same,current carried by the drug,"[1]; AC permeabilization, target resistance 2 kΩ, permselective membrane present",16%
same,gain in current carried by the drug due to permselective material,[1]; purely DC iontophoresis,about 40%
same,current carried by the drug,"[1]; purely DC iontophoresis, permselective material present",18%
same,current carried by the drug,"[1]; purely DC iontophoresis, without permselective material",13%
same,increase in electrical transference efficiency due to permselective membrane,[1]; target resistance 0.5 kΩ,~300%
same,electrical transference efficiency,"[1]; target resistance 0.5 kΩ, with permselective membrane",32%
same,electrical transference efficiency,"[1]; target resistance 0.5 kΩ, without permselective membrane",12%
same,increase of transference number by the permselective membrane,[2],between two- and three-fold
same,Salicylate Flux,"[2]; DC 0.4 mA, PSM +",21 ± 0.3 µg/min
same,Transference number,"[2]; DC 0.4 mA, PSM +",0.675 ± 0.073
same,Salicylate Flux,"[2]; DC 0.4 mA, PSM none",13 ± 0.1 µg/min
same,Transference number,"[2]; DC 0.4 mA, PSM none",0.385 ± 0.007
same,Salicylate Flux,"[2]; DC 1.0 mA, PSM +",48 ± 1.0 µg/min
same,Transference number,"[2]; DC 1.0 mA, PSM +",0.563 ± 0.013
same,Salicylate Flux,"[2]; DC 1.0 mA, PSM none",21 ± 0.2 µg/min
same,Transference number,"[2]; DC 1.0 mA, PSM none",0.235 ± 0.007
same,Salicylate Flux,"[2]; DC 2.0 mA, PSM +",109 ± 7.0 µg/min
same,Transference number,"[2]; DC 2.0 mA, PSM +",0.650 ± 0.048
same,Salicylate Flux,"[2]; DC 2.0 mA, PSM none",36 ± 2.0 µg/min
same,Transference number,"[2]; DC 2.0 mA, PSM none",0.210 ± 0.014
same,enhancement of salicylate flux by the permselective membrane,[2]; depending on current level,two- to three-fold
same,current carried by the drug,[2]; with permselective membrane,approximately 65%
